Experimental data reported in patent US10071133B2, “Method for destroying exosomes, kit for destroying exosomes, and method for isolating exosomes derived from normal cells” (priority 2015, dated 2018).
Ends that are not written are not given here.

Key:
Assay type in all cases: biochemical
[1] = test system: exosome fraction B derived from human breast cancer cells (MDA-MB-231-luc-D3H2LN); assay: Extraction of microRNA (miR-21) from exosomes derived from human breast cancer cells, real-time PCR; conditions: 100 μM peptide, 1×10^11 particles/mL exosomes, 0.4 U/μL RNase inhibitor, 37° C., 24 hours; without peptide 8×10^−14M
Protocol: (§1) A cell suspension of cell line MDA-MB-231-luc-D3H2LN derived from human breast cancer (=MM231-luc-D3H2LN, provided by the National Cancer Center Research Institute) was seeded in a dish containing RPMI 1640 medium (manufactured by Thermo Fisher Scientific Inc.) containing 10% fetal bovine serum. Subsequently, the cell line was grown at 37° C. under the condition that CO2 concentration was set to 5 volume % using a CO2 incubator, and then the medium was replaced with Advanced RPMI 1640 medium (manufactured by Thermo Fisher Scientific Inc.), followed by culturing for 48 hours, and therefore the culture solution containing exosomes was obtained. This culture solution was centrifuged at 2,000 G for 10 minutes to remove the precipitate, followed by centrifugation at 110,000 G for 70 minutes to precipitate the exosomes, and therefore an exosome fraction B was recovered. The recovered exosome fraction B was suspended in a phosphate buffered saline (PBS) and then stored at 4° C. Storage samples were lightly suspended with a vortex mixer (vibration mixer) before use.
(§2) MicroRNA (miR-21 or miR-16) in the reaction solution was subjected to reverse transcription PCR using reverse transcription primers (manufactured by Thermo Fisher Scientific Inc., Taqman microRNA Assays, RT primers, and hsa-mir-21 or hsa-mir-16) and a reverse transcriptase (manufactured by Thermo Fisher Scientific Inc., Taqman microRNA RT kit).
(§3) The reverse transcription PCR solution obtained by the above described method was processed and by comparing the number of cycles on a calibration curve of microRNA using Taqman Assay primer (manufactured by Thermo Fisher Scientific Inc., Taqman microRNA Assays, Taqman Assay primer, and hsa-mir-21 or hsa-mir-16) and Real-Time PCR Master Mixes (manufactured by Thermo Fisher Scientific Inc., TaqMan Universal PCR Master Mix II, w/UNG) with StepOnePlus Real-Time PCR System, MiR-21 or miR-16 was quantified. The calibration curve of microRNA was created using synthetic miR-21 (manufactured by Sigma-Aldrich Co. LLC.) or synthetic miR-16 (manufactured by Sigma-Aldrich Co. LLC.).
(§4) 10 μL of the exosome fraction was prepared such that PBS contains 1×10^11 particles/mL of the exosome fraction B derived from human breast cancer cells, various antimicrobial peptides shown in the following Table 2 adjusted to 100 μM, and 0.4 U/μL of RNase inhibitor (manufactured by Toyobo Co., Ltd.), followed by incubation by being left to stand at 37° C. for 24 hours.
MicroRNA eluted into the solution was purified and recovered from the incubated solution of Example 10 above and Comparative Example 6 above by the following method.
First, 160 μL of PBS was added to the reaction solution, and then the solution was added to a centrifugal filter (manufactured by Millipore Corporation, Amicon Ultra 0.5 mL, 100K filter) and centrifuged at 14,000 G for 2 minutes. Subsequently, 100 μL of the centrifuged filtrate was recovered and introduced into a 1.5 mL tube. Next, 350 μL of RLT buffer (manufactured by QIAGEN, attached with RNeasy mini kit) and 675 μL of ethanol were added and mixed in the 1.5 mL tube. The obtained mixture was separated into two parts, and each of the separates was added onto a spin column (manufactured by QIAGEN, attached with RNeasy mini kit) followed by centrifugation at 8,000 G for 15 seconds, and the entire amount of the mixture was passed through the spin column. Thereafter, 500 μL of RPE buffer (manufactured by QIAGEN, attached with RNeasy mini kit) was added thereto and centrifuged at 8,000 G for 15 seconds. Furthermore, 500 μL of the RPE buffer was added to the spin column once more and centrifuged at 8,000 G for 15 seconds. Thereafter, the spin column was centrifuged at 14,000 G for 1 minute to remove the residual RPE buffer. Next, 30 μL of RNase free water (manufactured by QIAGEN, attached with RNeasy mini kit) was added to the spin column, left for 1 minute, and then centrifuged at 14,000 G for 1 minute, and the eluate obtained thereby was recovered. […]

[2] = test system: exosome fraction B derived from human breast cancer cells versus exosome fraction derived from human mammary gland cells (MCF-10A, normal cells); assay: Selectivity: miR-16 ratio, breast cancer exosomes versus mammary gland normal cell exosomes (Formula 1); conditions: for mir-16 ratio: Formula 1, cancer/normal (MCF-10A), 100 μM peptide, 37° C., 24 hours; for Selectivity: from miR-16 ratio versus Comparative Example 8, breast cancer vs MCF-10A exosomes
Protocol: as §1
A cell suspension of cell line MCF 10A derived from human mammary epithelial cells (provided by the National Cancer Center Research Institute) was seeded in a dish containing Mammary Epithelium Cell Basal Medium (manufactured by Lonza). Subsequently, the cell line was grown at 37° C. under the condition that CO2 concentration was set to 5 volume % using a CO2 incubator, and then the medium was replaced with a fresh medium, followed by culturing for 48 hours, and the culture solution containing exosomes was obtained. This culture solution was centrifuged at 2,000 G for 10 minutes to remove the precipitate, followed by centrifugation at 110,000 G for 70 minutes to precipitate the exosomes, and an exosome fraction was recovered. The recovered exosome fraction was suspended in a phosphate buffered saline (PBS) and then stored at 4° C. Storage samples were lightly suspended with a vortex mixer (vibration mixer) before use.
as §2, §3
as §4, with “Table 4” for “Table 2”
Thereafter, the eluted MicroRNA (miR-16) was purified and recovered from the incubated solution by the same method as the above described method for extraction from the incubated solution of Examples 10 and 11 above and Comparative Examples 6 and 7 above. […]

[3] = test system: exosomes derived from cancer cells; assay: Preliminary examination of destructive ability of anticancer peptides against exosomes derived from cancer cells
Text: Specifically, the present inventors have come to realize the following knowledge.

[4] = test system: exosome derived from human prostate cancer cells (PC3ML); assay: Extraction of microRNA (miR-21) from exosome derived from prostate cancer cells, real-time PCR; conditions: 100 μM peptide, 1×10^11 particles/mL PC3ML exosomes, 0.4 U/μL RNase inhibitor, 37° C., 24 hours; without peptide 3×10^−14M
Protocol: A cell suspension of cell line PC3ML derived from human prostate cancer cells (provided by the National Cancer Center Research Institute) was seeded in a dish containing RPMI 1640 medium (manufactured by Thermo Fisher Scientific Inc.) containing 10% fetal bovine serum. Subsequently, the cell line was grown at 37° C. under the condition that CO2 concentration was set to 5 volume % using a CO2 incubator, and then the medium was replaced with Advanced RPMI 1640 medium (manufactured by Thermo Fisher Scientific Inc.), followed by culturing for 48 hours, and the culture solution containing exosomes was obtained. This culture solution was centrifuged at 2,000 G for 10 minutes to remove the precipitate, followed by centrifugation at 110,000 G for 70 minutes to precipitate the exosomes, and therefore an exosome fraction was recovered. The recovered exosome fraction was suspended in a phosphate buffered saline (PBS) and then stored at 4° C. Storage samples were lightly suspended with a vortex mixer (vibration mixer) before use. […]
as §3, with “The calibration curve of microRNA was created using synthetic miR-21 (manufactured by Sigma-Aldrich Co. LLC.) or synthetic miR-16 (manufactured by Sigma-Aldrich Co. LLC.).” left out
The amount of microRNA (miR-21) contained in the recovered eluate was quantified by the above described real-time PCR method. […] In addition, the destructive activity of the antimicrobial peptide used was evaluated on the basis of the following criteria based on the quantitative result of the concentration of microRNA (miR-21) performed by the real-time PCR method. […]

[5] = test system: exosome fraction A prepared from the cell line MM231-luc-D3H2LN derived from human breast cancer cells; assay: Destruction of exosomes in PBS, number of exosomes by nanoparticle analyzer (NanoSight LM10); conditions: 50 μM peptide, 1.36×10^10 particles/mL exosomes in PBS, 25° C., 48 hours
Text: Storage samples were lightly suspended with a vortex mixer (vibration mixer) before use.

Molecule	Destructive activity (concentration of microRNA miR-21 in eluate) [1]	mir-16 ratio [2]	Selectivity [2]	further results
CC[C@H](C)[C@H](NC(=O)CN)C(=O)NCC(=O)N[C@@H](C)C(=O)N[C@H](C(=O)N[C@@H](CC(C)C)C(=O)N[C@@H](CCCCN)C(=O)N[C@H](C(=O)N[C@@H](CC(C)C)C(=O)N[C@H](C(=O)N[C@H](C(=O)NCC(=O)N[C@@H](CC(C)C)C(=O)N1CCC[C@H]1C(=O)N[C@@H](C)C(=O)N[C@@H](CC(C)C)C(=O)N[C@H](C(=O)N[C@@H](CO)C(=O)N[C@@H](Cc1c[nH]c2ccccc12)C(=O)N[C@H](C(=O)N[C@@H](CCCCN)C(=O)N[C@@H](CCCNC(=N)N)C(=O)N[C@@H](CCCCN)C(=O)N[C@@H](CCCNC(=N)N)C(=O)N[C@@H](CCC(N)=O)C(=O)N[C@@H](CCC(N)=O)C(N)=O)[C@@H](C)CC)[C@@H](C)CC)[C@@H](C)O)[C@@H](C)O)C(C)C)C(C)C [Melittin]	A (the concentration of microRNA is 50×10^−14M or more)	42	B (evaluated as “B” in a case where the calculated miR-16 value was higher than the miR-16 ratio of Comparative Example 8)	–
A6K: amino acid sequence AAAAAAK (Ac-AAAAAAK-NH2)	D (the concentration of microRNA is less than 10×10^−14M)	–	–	destructive ability against the exosomes derived from cancer cells [3]: no or a low level
Caerin 1.1	A (the concentration of microRNA is 50×10^−14M or more)	27	B (evaluated as “B” in a case where the calculated miR-16 value was higher than the miR-16 ratio of Comparative Example 8)	–
Hepcidin TH2-3	D (the concentration of microRNA is less than 10×10^−14M)	–	–	destructive ability against the exosomes derived from cancer cells [3]: no or a low level
K6L9 (LKLLKKLLKKLLKLL)	B (the concentration of microRNA is 10×10^−14M to 50×10^−14M)	–	–	Destructive activity (concentration of microRNA miR-21 in eluate) [4]: A (the concentration of microRNA is 10×10^−14M or more)
LL-37	A (the concentration of microRNA is 50×10^−14M or more)	18	B (evaluated as “B” in a case where the calculated miR-16 value was higher than the miR-16 ratio of Comparative Example 8)	number of exosomes in the solution [5]: 1.09×10^9 particles/mL
Lactoferricin [Example 4]	–	–	–	number of exosomes in the solution [5]: 7.47×10^9 particles/mL
Maximin 1	B (the concentration of microRNA is 10×10^−14M to 50×10^−14M)	22	B (evaluated as “B” in a case where the calculated miR-16 value was higher than the miR-16 ratio of Comparative Example 8)	–
Maximin 4	B (the concentration of microRNA is 10×10^−14M to 50×10^−14M)	311	B (evaluated as “B” in a case where the calculated miR-16 value was higher than the miR-16 ratio of Comparative Example 8)	–
NRC-07	B (the concentration of microRNA is 10×10^−14M to 50×10^−14M)	–	–	–
Nisin [Example 3]	–	–	–	number of exosomes in the solution [5]: 4.51×10^9 particles/mL
PR-39 (RRRPRPPYLPRPRPPPFFPPRLPPRIPPGFPPRFPPRFP)	D (the concentration of microRNA is less than 10×10^−14M)	–	–	destructive ability against the exosomes derived from cancer cells [3]: no or a low level
PTP7	D (the concentration of microRNA is less than 10×10^−14M)	–	–	–
Pardaxin 4	B (the concentration of microRNA is 10×10^−14M to 50×10^−14M)	–	–	–
Sesquin (KTCENLADTY)	D (the concentration of microRNA is less than 10×10^−14M)	–	–	–
Short α-helical peptides (2) (GIIKKIIKKIIKKIIKKI-NH2)	B (the concentration of microRNA is 10×10^−14M to 50×10^−14M)	–	–	–
TsAP-2	B (the concentration of microRNA is 10×10^−14M to 50×10^−14M)	–	–	–
Tuftsin	B (the concentration of microRNA is 10×10^−14M to 50×10^−14M)	–	–	–
mCRAMP (GLLRKGGEKIGEKLKKIGQKIKNFFQKLVPQPEQ)	A (the concentration of microRNA is 50×10^−14M or more)	9	B (evaluated as “B” in a case where the calculated miR-16 value was higher than the miR-16 ratio of Comparative Example 8)	–
